{"source": "patent EP4603105A1", "about": "“PHARMACEUTICAL COMPOSITION CONTAINING CYCLIC COMPOUND HAVING SELECTIVE KRAS INHIBITORY EFFECT AGAINST HRAS AND NRAS” (CHUGAI SEIYAKU KABUSHIKI KAISHA, priority 2022, dated 2024)", "key": {"[1]": {"target": "GDP-bound NRAS wild-type protein (Homo sapiens, UniProt P01111)", "sequence (P01111 whole entry)": "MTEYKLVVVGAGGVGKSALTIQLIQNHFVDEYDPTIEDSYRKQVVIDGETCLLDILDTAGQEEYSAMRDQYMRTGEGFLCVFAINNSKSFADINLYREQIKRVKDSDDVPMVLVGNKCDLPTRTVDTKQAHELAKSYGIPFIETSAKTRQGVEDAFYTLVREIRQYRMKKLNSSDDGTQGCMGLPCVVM", "assay": "Binding to NRAS by surface plasmon resonance (SPR), KD and KD ratio to KRAS", "outline": "(§1)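 Measured at 30°C: SPR with GDP-loaded, E. coli-expressed biotin-Avi RAS captured (~100–300 RU), ascending 75 s compound injections, HBS pH 7.4 with GDP, MgCl2, 4% DMSO. KD from 1:1 fit.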"}, "[2]": {"target": "HRAS wild-type protein (Homo sapiens, UniProt P01112)", "sequence (P01112 whole entry)": "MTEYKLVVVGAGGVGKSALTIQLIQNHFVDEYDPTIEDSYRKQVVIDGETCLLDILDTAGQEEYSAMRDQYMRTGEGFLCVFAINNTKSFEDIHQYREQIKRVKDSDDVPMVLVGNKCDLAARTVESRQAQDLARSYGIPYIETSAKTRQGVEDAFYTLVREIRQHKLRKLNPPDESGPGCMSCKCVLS", "assay": "Binding to HRAS by surface plasmon resonance (SPR), KD and KD ratio to KRAS", "outline": "as §1"}, "[3]": {"tested_on": "human lung cancer strain NCI-H441", "format": "cell-based", "outline": "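Signal came from […] measured per well once the reagent was added. Beforehand, cells were cultured at 37°C and 5% carbon dioxide on a compound series serially diluted in dimethyl sulfoxide.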"}, "[4]": {"conditions": "ratio of KD for GDP-bound NRAS wild-type protein to KD for KRAS"}, "[5]": {"conditions": "ratio of KD for HRAS wild-type protein to KD for KRAS"}}, "note": "Where a SMILES comes first, the peptide text is derived from it. Bridges are numbered along the chain shown (N, C = ends). [ ]: non-standard residue; d: D form. The star is where a group is joined. hPhe(3-Cl-4-CF3) = N[C@@H](CCc1ccc(C(F)(F)F)c(Cl)c1)C(=O)O; NPrPhe(4-CF3) = CCCN[C@@H](Cc1ccc(C(F)(F)F)cc1)C(=O)O; NPrPhe(4-Me) = CCCN[C@@H](Cc1ccc(C)cc1)C(=O)O; NMeGly(cPent) = CN[C@H](C(=O)O)C1CCCC1; cisHyp = O=C(O)[C@@H]1C[C@H](O)CN1; Hyp = O=C(O)[C@@H]1C[C@@H](O)CN1; NMeD = CN[C@@H](CC(=O)O)C(=O)O; NMeL = CN[C@@H](CC(C)C)C(=O)O; Morpholide = C1CN(*)CCO1; NMeA = CN[C@@H](C)C(=O)O; Ac5c = NC1(C(=O)O)CCCC1; Aze = O=C(O)[C@@H]1CCN1; NPrGly = CCCNCC(=O)O; NEtG = CCNCC(=O)O; Sar = CNCC(=O)O", "data": [{"molecule": "CC[C@H](C)[C@@H]1NC(=O)[C@H](CC(C)C)N(C)C(=O)C[C@@H](C(=O)N2CCOCC2)N(C)C(=O)[C@H](C2CCCC2)N(C)C(=O)C2(CCC2)NC(=O)[C@@H]2[C@H](O)CCN2C(=O)[C@H](CCc2cc(F)c(C(F)(F)F)c(F)c2)NC(=O)CN(C)C(=O)[C@H](Cc2ccc(C(F)(F)F)cc2)N2CCCC[C@@H](C2=O)N(C)C(=O)CN(C)C1=O", "note": "[PP0870]", "values": [{"measurement": "NRAS /KRAS", "setting": "[1]; [4]", "result": "B (a compound having 3 or more and less than 10 is denoted as B)"}, {"measurement": "HRAS /KRAS", "setting": "[2]; [5]", "result": "B (a compound having 3 or more and less than 10 is denoted as B)"}, {"measurement": "IC50", "setting": "[3]", "result": 79.7, "unit": "nM"}]}, {"molecule": "CCO[C@@H]1C[C@H]2C(=O)NC3(CC(F)(F)C3)C(=O)N(C)[C@@H](C3CCCC3)C(=O)N(C)[C@H](C(=O)N3CCOCC3)CC(=O)N(C)[C@@H](CC(C)C)C(=O)N[C@@H]([C@@H](C)CC)C(=O)N(C)CC(=O)N(C)[C@H]3CC=C(C)CN(C3=O)[C@@H](Cc3ccc(C(F)(F)F)cc3)C(=O)N(C)CC(=O)N[C@@H](CCc3cc(F)c(C(F)(F)F)c(F)c3)C(=O)N2C1", "note": "[PP0828]", "values": [{"measurement": "NRAS /KRAS", "setting": "[1]; [4]", "result": "C (A compound having a KD ratio of 0.1 or more and less than 3 is denoted as C)"}, {"measurement": "HRAS /KRAS", "setting": "[2]; [5]", "result": "C (A compound having a KD ratio of 0.1 or more and less than 3 is denoted as C)"}, {"measurement": "IC50", "setting": "[3]", "result": 7.3, "unit": "nM"}]}, {"molecule": "CCO[C@@H]1C[C@H]2C(=O)NC3(CCC3)C(=O)N(C)[C@@H](C3CCCC3)C(=O)N(C)[C@H](C(=O)N(C)C)CC(=O)N(C)[C@@H](Cc3cccnc3)C(=O)N[C@@H]([C@@H](C)CC)C(=O)N(C)CC(=O)N(C)[C@H]3CCCCCN(C3=O)[C@@H](Cc3ccc(C(F)(F)F)cc3)C(=O)N(C)CC(=O)N[C@@H](CCc3cc(F)c(C(F)(F)F)c(F)c3)C(=O)N2C1", "note": "[PP0673]", "values": [{"measurement": "NRAS /KRAS", "setting": "[1]; ratio of the KD value with respect to GDP-bound NRAS wild-type protein to the KD value with respect to KRAS", "result": "B (a compound having 3 or more and less than 10 is denoted as B)"}, {"measurement": "HRAS /KRAS", "setting": "[2]; ratio of the KD value with respect to HRAS wild-type protein to the KD value with respect to KRAS", "result": "B (a compound having 3 or more and less than 10 is denoted as B)"}, {"measurement": "IC50", "setting": "[3]", "result": 52.5, "unit": "nM"}]}, {"molecule": "CCCN1C(=O)CN(C)C(=O)[C@@H]2CCN2C(=O)[C@H]([C@@H](C)CC)NC(=O)[C@H](CC(C)C)N(C)C(=O)C[C@@H](C(=O)N2CCOCC2)NC(=O)[C@H](C2CCCC2)N(C)C(=O)C2(CCCC2)NC(=O)[C@@H]2CCCN2C(=O)[C@H](CCc2ccc(C(F)(F)F)c(Cl)c2)NC(=O)CN(C)C(=O)[C@@H]1Cc1ccc(C(F)(F)F)cc1", "note": "[PP0337] ([NMeL]I[Aze][Sar][NPrPhe(4-CF3)][Sar][hPhe(3-Cl-4-CF3)]P[Ac5c][NMeGly(cPent)]D-Morpholide; lactam N-11)", "values": [{"measurement": "NRAS /KRAS", "setting": "[1]; [4]", "result": "B (a compound having 3 or more and less than 10 is denoted as B)"}, {"measurement": "HRAS /KRAS", "setting": "[2]; [5]", "result": "B (a compound having 3 or more and less than 10 is denoted as B)"}, {"measurement": "IC50", "setting": "[3]", "result": 333, "unit": "nM"}]}, {"molecule": "CCCN1C(=O)CN(CC)C(=O)CN(C)C(=O)[C@H]([C@@H](C)CC)NC(=O)[C@H](CC(C)C)N(C)C(=O)C[C@@H](C(=O)N2CCOCC2)N(C)C(=O)[C@H](C2CCCC2)N(C)C(=O)C2(CCCC2)NC(=O)[C@@H]2CCCN2C(=O)[C@H](CCc2ccc(C(F)(F)F)c(Cl)c2)NC(=O)CN(CC)C(=O)[C@@H]1Cc1ccc(C)cc1", "note": "[PP0069] ([NMeL]I[Sar][NEtG][NPrPhe(4-Me)][NEtG][hPhe(3-Cl-4-CF3)]P[Ac5c][NMeGly(cPent)][NMeD]-Morpholide; lactam N-11)", "values": [{"measurement": "NRAS /KRAS", "setting": "[1]; [4]", "result": "C (A compound having a KD ratio of 0.1 or more and less than 3 is denoted as C)"}, {"measurement": "HRAS /KRAS", "setting": "[2]; [5]", "result": "C (A compound having a KD ratio of 0.1 or more and less than 3 is denoted as C)"}, {"measurement": "IC50", "setting": "[3]", "result": 39.7, "unit": "nM"}]}, {"molecule": "CCO[C@@H]1C[C@H]2C(=O)NC3(CCC3)C(=O)N(C)[C@@H](C3CCCC3)C(=O)N(C)[C@H](C(=O)N(C)C)CC(=O)N(C)[C@@H](CC)C(=O)N[C@@H]([C@@H](C)CC)C(=O)N(C)CC(=O)N(C)[C@H]3C[C@@H](C)CCN(C3=O)[C@@H](Cc3ccc(C(F)(F)F)cc3)C(=O)N(C)CC(=O)N[C@@H](CCc3cc(F)c(C(F)(F)F)c(F)c3)C(=O)N2C1", "note": "[PP1020]", "values": [{"measurement": "NRAS /KRAS", "setting": "[1]; [4]", "result": "C (A compound having a KD ratio of 0.1 or more and less than 3 is denoted as C)"}, {"measurement": "HRAS /KRAS", "setting": "[2]; [5]", "result": "B (a compound having 3 or more and less than 10 is denoted as B)"}, {"measurement": "IC50", "setting": "[3]", "result": 18, "unit": "nM"}]}, {"molecule": "CCCN1CC(=O)NC2(CCCC2)C(=O)N(C)[C@@H](C2CCCC2)C(=O)N(C)[C@H](C(=O)N2CCOCC2)CC(=O)N(C)[C@@H](CC(C)C)C(=O)N[C@@H]([C@@H](C)CC)C(=O)N2CC[C@H]2C(=O)N(C)CC(=O)N(CCC)[C@@H](Cc2ccc(C(F)(F)F)cc2)C(=O)N(C)CC(=O)N[C@@H](CCc2ccc(C(F)(F)F)c(Cl)c2)C1=O", "note": "[PP0315] ([NMeL]I[Aze][Sar][NPrPhe(4-CF3)][Sar][hPhe(3-Cl-4-CF3)][NPrGly][Ac5c][NMeGly(cPent)][NMeD]-Morpholide; lactam N-11)", "values": [{"measurement": "NRAS /KRAS", "setting": "[1]; [4]", "result": "B (a compound having 3 or more and less than 10 is denoted as B)"}, {"measurement": "HRAS /KRAS", "setting": "[2]; [5]", "result": "B (a compound having 3 or more and less than 10 is denoted as B)"}, {"measurement": "IC50", "setting": "[3]", "result": 148, "unit": "nM"}]}, {"molecule": "CCCN1C(=O)[C@@H]2CCN2C(=O)[C@H](C)N(C)C(=O)[C@H]([C@@H](C)CC)NC(=O)[C@H](CC(C)C)N(C)C(=O)C[C@@H](C(=O)N2CCOCC2)N(C)C(=O)[C@H](C2CCCC2)N(C)C(=O)C2(CCCC2)NC(=O)[C@@H]2C[C@H](OCC)CN2C(=O)[C@H](CCc2ccc(C(F)(F)F)c(Cl)c2)NC(=O)CN(C)C(=O)[C@@H]1Cc1ccc(C(F)(F)F)cc1", "note": "[PP0242] ([NMeL]I[NMeA][Aze][NPrPhe(4-CF3)][Sar][hPhe(3-Cl-4-CF3)][cisHyp](Et)[Ac5c][NMeGly(cPent)][NMeD]-Morpholide; lactam N-11)", "values": [{"measurement": "NRAS /KRAS", "setting": "[1]; [4]", "result": "C (A compound having a KD ratio of 0.1 or more and less than 3 is denoted as C)"}, {"measurement": "HRAS /KRAS", "setting": "[2]; [5]", "result": "C (A compound having a KD ratio of 0.1 or more and less than 3 is denoted as C)"}, {"measurement": "IC50", "setting": "[3]", "result": 5, "unit": "nM"}]}, {"molecule": "CCO[C@@H]1C[C@H]2C(=O)NC3(CCC3)C(=O)N(C)[C@@H](C(CC)CC)C(=O)N(C)[C@H](C(=O)N3CCCC3)CC(=O)N(C)[C@H]3CCC/C=C/c4ccc(cc4)C[C@@H](C(=O)N(C)CC(=O)N[C@@H](CCc4ccc(Cl)c(Cl)c4)C(=O)N2C1)N1CC/C=C\\C[C@@H](C1=O)N(C)C(=O)CN(C1CC1)C(=O)[C@H]([C@@H](C)CC)NC3=O", "note": "[PP3040]", "values": [{"measurement": "NRAS /KRAS", "setting": "[1]; [4]", "result": "AA (a compound having 20 or more is denoted as AA)"}, {"measurement": "HRAS /KRAS", "setting": "[2]; [5]", "result": "A (a compound having 10 or more and less than 20 is denoted as A)"}, {"measurement": "IC50", "setting": "[3]", "result": 10, "unit": "nM"}]}, {"molecule": "CCCN1C(=O)[C@@H]2CCN2C(=O)CN(C)C(=O)[C@H]([C@@H](C)CC)NC(=O)[C@H](CC(C)C)N(C)C(=O)C[C@@H](C(=O)N2CCOCC2)NC(=O)[C@H](C2CCCC2)N(C)C(=O)C2(CCCC2)NC(=O)[C@@H]2C[C@@H](OCC)CN2C(=O)[C@H](CCc2ccc(C(F)(F)F)c(Cl)c2)NC(=O)CN(C)C(=O)[C@@H]1Cc1ccc(C(F)(F)F)cc1", "note": "[PP0353] ([NMeL]I[Sar][Aze][NPrPhe(4-CF3)][Sar][hPhe(3-Cl-4-CF3)][Hyp](Et)[Ac5c][NMeGly(cPent)]D-Morpholide; lactam N-11)", "values": [{"measurement": "NRAS /KRAS", "setting": "[1]; [4]", "result": "C (A compound having a KD ratio of 0.1 or more and less than 3 is denoted as C)"}, {"measurement": "HRAS /KRAS", "setting": "[2]; [5]", "result": "B (a compound having 3 or more and less than 10 is denoted as B)"}, {"measurement": "IC50", "setting": "[3]", "result": 46.7, "unit": "nM"}]}, {"molecule": "CCO[C@@H]1C[C@H]2C(=O)NC3(CCC3)C(=O)N(C)[C@@H](C3CCCC3)C(=O)N(C)[C@H](C(=O)N(C)C)CC(=O)N(C)[C@@H](CC3CCCC3)C(=O)N[C@@H]([C@@H](C)CC)C(=O)N(C)CC(=O)N(C)[C@H]3C/C=C\\CCN(C3=O)[C@@H](Cc3ccc(C)cc3)C(=O)N(C)CC(=O)N[C@@H](CCc3cc(C)c(C(F)F)c(F)c3)C(=O)N2C1", "note": "[PP2676]", "values": [{"measurement": "NRAS /KRAS", "setting": "[1]; [4]", "result": "A (a compound having 10 or more and less than 20 is denoted as A)"}, {"measurement": "HRAS /KRAS", "setting": "[2]; [5]", "result": "A (a compound having 10 or more and less than 20 is denoted as A)"}, {"measurement": "IC50", "setting": "[3]", "result": 60.8, "unit": "nM"}]}]}
